Consider 8 compounds from US20220354911A1, “TREATMENT OF TUMORS BY A COMBINATION OF AN ONCOLYTIC ADENOVIRUS, A CDK4/6 INHIBITOR AND A FURTHER THERAPEUTICALLY ACTIVE AGENT” (KLINIKUM RECHTS DER ISAR DER TECHNISCHEN UNIVERSITÄT MÜNCHEN, priority 2019, published 2022).

The subject of one test is XVir-N-31. The test is described as follows: XVir-N-31 fiber DNA qPCR with BET inhibitors and BET degraders. The class given is cell-based, Mastadenovirus, Type C, Serotype 5. Particulars: UMUC-3 (MOI 10) and RT112 (MOI 50), 24 hours post infection. The method, then: 3×10^4 UMUC-3 cells and 4×10^4 RT112 cells were seeded in 12 well plates in DMEM and RPMI medium. The following day the cells were pretreated with BETi and BETd. 48 hours post seeding the cells were infected with 10 MOI for UMUC-3 and 50 MOI for RT112 and treated with the indicated concentration of BETi and BETd. After each timepoint (4, 24 hour) the cells were washed once with PBS and 200 μl of SDS DNA Lysis Buffer was added. The cells were incubated with Proteinase K before undergoing a Phenol-Chloroform-Isoamylalcohol purification. The DNA was diluted in DNase free water and the concentration of the DNA was determined using a Nanodrop. For each sample a solution of 15 ng/μl was prepared and a RT-qPCR using 75 ng of DNA and a GoTaq Master mix. Specific Fiber forward and reverse primers were used and for the calculation of the Δ ct value specific Actin primers were used as well. For each sample 3 Fiber and 3 Actin values were measured. The calculation was done in excel and each 24 hours was calculated based on its 4 hours value (initial viral entry, before replication).

The next test concerns SK-N-MC cells. The test is described as follows: Cell cycle distribution (propidium iodine) of SK-N-MC cells. It is filed as cell-based. To be noted: 48 hours post treatment, MK-1775 at 500 nM. The method, then: 48 hours post treatment cells were washed twice took place with PBS (containing RNase A, 100 U/ml). Cells were trypsinized and centrifuged at 1500 rpm, 4° C. for 5 min. Cells are fixed by adding slowly 1 ml of ice-cold 80% Ethanol drop by drop to the pellet and incubated overnight. Staining was performed by adding 1 ml of staining solution (Propidium Iodine, 50 μg/ml) to the cells and incubating 30-60 min at RT with gentle rocking. MK: MK-1775; LY: LY-2835219.

In another test the test system is dl703. The test is described as follows: E1A-independent viral DNA replication of dl703 (fiber qPCR). To be noted: UMUC cells, 1 μM CI-1040, 50 MOI dl703, 48 hours post infection. The class given is cell-based, Mastadenovirus, Type C, Serotype 5. On the procedure:
To investigate the differences in replication of dl703 (Mantwill et al. 2013, Journal of Translational Medicine, 11, 216) under different treatment conditions, DNA-replication analysis was performed. 100,000 UMUC cells were seeded in 6-well plates and grown in DMEM medium containing 10% FCS in 5% CO2 conditions at 37° C. 24 hours post seeding cells were treated for 24 hours with 10 μM Lee (Ribociclib), 1 μM CI-1040, 10 μM Nutlin-3a and 10 μM Roscovertine and again after infection adding an appropriate amount of inhibitors to the medium. Infection with 50 MOI dl703 (Mastadenovirus, Type C, Serotype 5 with a 3.2 kb sized deletion in E1 region) took place 24 hours post treatment. After 4 and 48 hours post infection DNA were isolated and qPCR was performed using specific primers for the viral fiber gene. Fiber fwd. 5′-[…]-3′ (SEQ ID NO: 17); Fiber rev. 5′-[…]-3′ (SEQ ID NO: 18).

Another test deals with Rb, phRB and E2F1. The test is described as follows: Western blot of UMUC cells treated with cell cycle inhibitors. The class given is cell-based, human. To be noted: 24 hours post-treatment, LEE-011 at 10 μM, MI-1040 at 1 μM. The method, then:
Western Blot analysis of UMUC cells treated with indicated concentrations of CI-1040, Roscovitine, Nutlin-3a and LEE011 (Ribociclib). 1×10^6 cells were seeded in 10 cm dishes. 24 hours post-treatment proteins were isolated using 1% SDS buffer, to achieve the disruption of the nuclear membrane. All samples were drawn up several times into a syringe to disrupt the DNA and subsequently centrifuged at 30000 rpm at 4° C. for 30 minutes. The supernatant was transferred to a new reaction tube and directly used for further steps or stored at −80° C. To separate the proteins a sodium dodecyl sulfate polyacrylamide gel electrophoresis was performed. By means of electrophoresis for approximately two hours at 100V at 4° C., 40 μg of total proteins were loaded and probed against specific indicated antibodies.
(A western blot detects proteins with antibodies after separation by electrophoresis.)

Another test relates to UMUC3 cells. The test is described as follows: Cell cycle analysis (flow cytometry) of UMUC3 cells. To be noted: UMUC3, 48 hours; Roscovitine 10 μM, CI-1040 1 μM, Nutlin-3a 10 μM, LEE011 10 μM; 10 MOI dl703. The class given is cell-based, human. The method, then:
FIG. 10 is a bar diagram showing cell cycle distribution in UMUC3 cells, measured 48 hours post treatment, whereby the concentrations of the […] inhibitors was as follows: Roscovitine: 10 μM, CI-1040: 1 μM, Nutlin-3a: 10 μM, and LEE011: 10 μM.
For cell cycle analysis cells were seeded in 6 well plates (2.5×10E4 c/well). 8 hours before infection with dl703, cells were treated with indicated concentration of cell cycle inhibitors. After infection with 10 MOI dl703 cells were again treated for 48 hours. Untreated cells and dl703 infected cells only, served as control. 48h post infection cells were harvest by trypsinization and fixed with 80% ethanol while vortexing. To investigate the cell cycle status, fixed cells were centrifuged 5 min at RT and 300 g and ethanol was aspirated. Cells were resuspended and washed with 1% BSA-PBS (Bovine Serum Albumin) and again centrifuged. Cells were stained with EDU and cell cycle analysis were performed using the Click-iT™ Plus EdU Flow Cytometry Assay Kits, Catalog nos. C10632 from Thermo Fischer. In addition, after 3× times washing with 1% BSA/PBS cells were stained with PI (Propidium Iodine, 50 μg/ml). Measurement was directly performed after staining with a FACScalibur Flow Cytometry System. Data was analyzed with FlowJo software.

Test [1] concerns T24 cells. The test is described as follows: Potency assay/SRB staining, XVir-N-31, Nutlin-3a and Palbociclib. It is filed as cell-based, human. To be noted: T24, 30 μM Nutlin-3a, 500 nM Palbociclib, four dpi. The method, then: (§1) Cell killing using XVir-N-31 alone and in combination with small molecule inhibitors was analysed in 12-well plates. […] At 1 hpi, complete medium with Palbociclib was added to the cells pretreated with Palbociclib. To the control as well as to the Nutlin treated cell complete medium without inhibitors was added.
A potency assay using T24 cells was carried out for determining the cell killing effect of XVir-N-31 alone, XVir-N-31 with Nutlin-3a, XVir-N-31 with Palbociclib, and XVir-N-31 with both Nutlin-3a and Palbociclib.
(In SRB staining, fixed cells bind dye roughly in proportion to their protein.)

The subject of a further test is T24shRB cells. The description is as above. To be noted: 30 μM Nutlin-3a, 500 nM Palbociclib, four dpi. The class given is cell-based, human. The method, then: as §1
The same potency assay as subject to Example 27.2 was carried out using T24shRB cells. T24shRB cells are T24 cells without Rb expression. Such lacking Rb expression was generated by means of lentiviral transfection, wherein the lentivirus coded for shRNA directed to Rb. The lentivirus vector used was pLKO-RB1-shRNA19 (obtained from Addgene, Watertown, Mass. 02472, USA), the sequence of the shRNA was as follows […] (SEQ ID NO: 39). The procedure is also described by Michaud K et al. (Cancer Res. 2010 Apr. 15. 70(8):3228-38).

In another test the test system is T24 and UMUC-3. The test is described as follows: FACS cell cycle analysis, Talazoparib and Palbociclib. It is filed as cell-based, human. To be noted: T24 and UMUC-3, 48 hours. The method, then:
The influence of the applied small molecule inhibitors at their indicated concentrations on the cell cycle of bladder cancer cell lines T24 and UMUC-3 was analysed via flow cytometry analysis after DNA staining. 5×10^4 cells were seeded in 6-well plates and 24 hours later treated with appropriate inhibitors. Two days later, at approximately 80% confluency, cells were washed with PBS, trypsinized, washed again and fixated with icecold 80% ethanol. For cell cycle analysis, samples were incubated with the DNA-intercalating dye 7-aminoactinomycine D (7-AAD) and measured via FACS analysis. Evaluation of measured data was performed via the software FlowJo.

The next test concerns UMUC-3. The test is described as follows: Potency assay (SRB), XVir-N-31, Palbociclib and PARP inhibitor. To be noted: Homo sapiens; UMUC3 cells; read-out: IC-80 value. It is filed as cell-based. On the procedure:
Seeding of UMUC-3: 3000 cells were seeded per well in 12-well plates and grown over-night in DMEM Medium containing 10% FCS at 37° C. Inhibitor-treatment of cell occurred 24 h past seeding and again 1 hour after infection by adding indicated concentration to the medium. Infection of cells took place 24 h past inhibitor-treatment. Fixation and SRB-staining took place at 1-6 days post infection (dpi: days post infection). 160 nM PARPi correspond to the IC-80 value in UMUC3 cells.

Test [2] has as its system T24 cells. The test is described as above. The class given is cell-based. To be noted: Homo sapiens, T-24, read-out: IC-80 value. The method, then: 12,500 T24 cells were seeded per well in 12-well plates and grown over-night in RPMI Medium containing 10% FCS at 37° C. Inhibitor-treatment of cells occurred 24 h past cell seeding and again 1 hour after infection by adding indicated concentration to the medium. Infection of cells took place 24 h past inhibitor-treatment in 250 μl medium without serum. Fixation and SRB-staining took place at 4 days post infection. PD, Palbociclib; PARPi: BMN673.
For SRB staining, the medium was removed by aspiration. Cells were fixed with 1 ml (per well) 10% cold TCA at 4° C. for 1 hour. TCA was removed by aspiration and cell layers were washed 4× with tap water. Cells were stained with 1 ml (per well) 0.5% SRB (sulforhodamine B) in 1% acetic acid for 30 min. Unbound SRB was removed in five washing steps with 1 ml 1% acetic acid/well; after each washing step, acetic acid was removed by aspiration. Plates were air-dried for 2 hrs. To solubilize the SRB stained cells, 200 μl of 10 mM Tris base was added to each well. […] The 96 well plate was loaded into an Elisa-plate reader and absorption of the samples was measured at 560 nm. […]
In order to show the kinetics of a triple therapy of T24 cells using triple therapy comprising XVir-N-31, Palbociclib and a PARP inhibitor (BMN673 (Talazoparib)), a potency assay was carried out and the potency assessed at different points in time. […]

For another test, the system named is RT112. The test is described as follows: IC50 concentration of PD-0332991. It is filed as cell-based. To be noted: Homo sapiens, RT-112. On the procedure: (§2) The class of CDK4/6 inhibitors as subject to Example 5 requires expression of RB. Therefor, three RB positive and two RB negative bladder cancer derived cell lines were used and the cells treated with the combination therapy. Cell lines were pretreated for 24 hours with an IC50 concentration of PD-0332991 (T24: 500 nM, RT112: 2000 nM, 253J: 100 nM) and infected with XVir-N-31 (T24 MOI50, 253J MOI 25, RT112 MOI450). Values are the average of at least 2 independent experiments. Error bars show the standard error. Four dpi, cell viability was measured using SRB assays (a, c). (b, d) Lysates of cells were prepared 3 dpi and a titer test was performed on Hek293 cells. Viral titer is shown as fold change relative to control

The next test has as its system T24. Nature of the test: IC50 concentration of PD-0332991. The class given is cell-based. Particulars: Homo sapiens, T-24. On the procedure:
as §2

In a further test the test system is 253J. The test is described as follows: IC50 concentration of PD-0332991. To be noted: Homo sapiens. The class given is cell-based. The method, then:
as §2

On to `COc1nnc2ccc(N3CCC(c4ccc(OCCN5CCN(C)C(=O)[C@H]5C)cc4)CC3)nn12` [AZD5153], for which the “replication of XVir-N-31” value with XVir-N-31 is “highest”.

In the case of `CCN1CCN(Cc2ccc(Nc3ncc(F)c(-c4cc(F)c5nc(C)n(C(C)C)c5c4)n3)nc2)CC1` [Abemaciclib], in the test on SK-N-MC cells, the cell cycle entry is on record as “no effect”.

On to `O=C(NOCC1CC1)c1ccc(F)c(F)c1Nc1ccc(I)cc1Cl` [CI-1040], for which the “viral DNA replication of dl703” value with dl703 is “much lower compared to Ribociclib treated cells”. In addition, the “Rb, phRB and E2F1 expression” value with Rb, phRB and E2F1 is recorded as “induced inhibition”. For the same compound, the cell cycle distribution result in the test with UMUC3 cells is on record as “clear G1-arrest”.

In the case of `C=CCn1c(=O)c2cnc(Nc3ccc(N4CCN(C)CC4)cc3)nc2n1-c1cccc(C(C)(C)O)n1` [MK-1775], the cell cycle entry in the test on SK-N-MC cells is “increase of cells in G2/M”.

For the compound `COc1ccc(C2=N[C@@H](c3ccc(Cl)cc3)[C@@H](c3ccc(Cl)cc3)N2C(=O)N2CCNC(=O)C2)c(OC(C)C)c1` [Nutlin-3a], the “cell killing by XVir-N-31” value with T24 cells [1] is listed as “enhanced cell killing”. For the same compound, in the test on Rb, phRB and E2F1, the “Rb, phRB and E2F1 expression” value is on record as “no pronounced effect”. Further, in the test on UMUC3 cells, the cell cycle distribution result is on record as “only little or no effect on the cell cycle”. For the same compound, in the test on T24shRB cells, the “killing of Rb-negative cells by XVir-N-31” value is “not effective”.

With `Cn1ncnc1[C@H]1c2n[nH]c(=O)c3cc(F)cc(c23)N[C@@H]1c1ccc(F)cc1` [PARPi], the “G1 arrest on addition of Talazoparib” value with T24 and UMUC-3 is listed as “not influenced”. Also, the values for the IC80 with UMUC-3 and in the test on T24 cells [2] were 160 nM and 15 nM, respectively.

A word on the IC50: it is the concentration needed to halve the response being measured. Consider `CC(=O)c1c(C)c2cnc(Nc3ccc(N4CCNCC4)cn3)nc2n(C2CCCC2)c1=O` [Palbociclib], for which the concentration for half-maximal inhibition (IC50) in the test with RT112 was found to be 2000 nM; in the test on T24, 500 nM; in the test with 253J it was 100 nM.

Consider `CC[C@H](CO)Nc1nc(NCc2ccccc2)c2ncn(C(C)C)c2n1` [Roscovitine], for which, in the test on Rb, phRB and E2F1, the “Rb, phRB and E2F1 expression” value is on record as “no pronounced effect”. Also, the cell cycle distribution result with UMUC3 cells is “slight increase of G2/m arrested cells”.
